Laboratory results: ChEMBL document CHEMBL4038322, “Interactions between β2-Adrenoceptor Ligands and Membrane: Atomic-Level Insights from Magic-Angle Spinning NMR” (J Med Chem, 2017)
Activity calls are given as the source filed them. No cut-off for these calls is given here.

Assays:
[1] = Lipophilicity of the compound assessed as capacity factor (CHI IAM7.4) at pH 7.4 by chromatographic analysis; format: physicochemical; conditions: buffer
Lipid bilayer [2] = assay: Binding affinity to POPC liposome membrane in liquid disorder phase assessed as change in cross-relaxation rate of hydrophilic group B protons with G-3 segment at compound to POPC molar ratio of 1:10 to 1:5 by 1D 1H […] analysis
[3] = n-octanol/PBS/sodium carbonate partition coefficient, log P of the compound after 4 hrs; format: physicochemical
Lipid bilayer [4] = assay: Binding affinity to POPC liposome membrane assessed as cross-relaxation rate of E proton with C-3/C-2 region of lipid at compound to POPC molar ratio of 1:10 by NOESY 1H NMR analysis
Lipid bilayer [5] = assay: Binding affinity to POPC liposome membrane assessed as 31P chemical shift anisotropy at compound to POPC molar ratio of 1:10 by NMR analysis (reference value: 28.9 ppm)
Lipid bilayer [6] = assay: Binding affinity to POPC liposome membrane in liquid disorder phase assessed as change in cross-relaxation rate of hydrophilic group B protons with G-1 segment at compound to POPC molar ratio of 1:10 to 1:5 by 1D 1H […] analysis
Lipid bilayer [7] = assay: Binding affinity to POPC liposome membrane assessed as cross-relaxation rate of F proton with C-3/C-2 region of lipid at compound to POPC molar ratio of 1:10 by NOESY 1H NMR analysis
Lipid bilayer [8] = assay: Binding affinity to POPC liposome membrane assessed as cross-relaxation rate of H proton with C-3/C-2 region of lipid at compound to POPC molar ratio of 1:10 by NOESY 1H NMR analysis
Lipid bilayer [9] = assay: Binding affinity to POPC liposome membrane at compound to POPC molar ratio of 1:10 after 300 milliseconds by NOESY 1H NMR analysis
Lipid bilayer [10] = assay: Binding affinity to POPC liposome membrane in liquid disorder phase assessed as broadening of POPC signals at compound to POPC molar ratio of 1:5 by 1D 1H […] analysis
Lipid bilayer [11] = assay: Binding affinity to POPC liposome membrane at compound to POPC molar ratio of 1:10 after 3 milliseconds by 2D NOESY NMR analysis
Lipid bilayer [12] = assay: Binding affinity to POPC liposome membrane in liquid disorder phase assessed as change in cross-relaxation rate of lypophilic group E protons with C2/C3 segment at compound to POPC molar ratio of 1:10 to 1:5 by 1D 1H […] analysis
Lipid bilayer [13] = assay: Binding affinity to POPC liposome membrane assessed as 31P chemical shift anisotropy at compound to POPC molar ratio of 1:10 in presence of Mn2+ by NMR analysis
Lipid bilayer [14] = assay: Binding affinity to POPC liposome membrane at compound to POPC molar ratio of 1:10 after 3 milliseconds in presence of Mn2+ by 2D NOESY NMR analysis
Lipid bilayer [15] = assay: Binding affinity to POPC liposome membrane assessed as cross-relaxation rate of F protons with lipid acyl CH3 at compound to POPC molar ratio of 1:10 by NOESY 1H NMR analysis; parameters: scale not given: the % may be the effect or the level left
Lipid bilayer [16] = assay: Binding affinity to POPC liposome membrane assessed as cross-relaxation rate of F protons with segment alpha at compound to POPC molar ratio of 1:10 by NOESY 1H NMR analysis; parameters: scale not given: the % may be the effect or the level left
Lipid bilayer [17] = assay: Binding affinity to POPC liposome membrane assessed as cross-relaxation rate of E protons with CH2-C= segment at compound to POPC molar ratio of 1:10 by NOESY 1H NMR analysis
Lipid bilayer [18] = assay: Binding affinity to POPC liposome membrane assessed as cross-relaxation rate of F protons with segment G-3 at compound to POPC molar ratio of 1:10 by NOESY 1H NMR analysis; parameters: scale not given: the % may be the effect or the level left
Lipid bilayer [19] = assay: Binding affinity to POPC liposome membrane assessed as cross-relaxation rate of F protons with segment beta at compound to POPC molar ratio of 1:10 by NOESY 1H NMR analysis; parameters: scale not given: the % may be the effect or the level left
Lipid bilayer [20] = assay: Binding affinity to POPC liposome membrane assessed as cross-relaxation rate of E protons with C2/C3 segment at compound to POPC molar ratio of 1:10 by NOESY 1H NMR analysis
Lipid bilayer [21] = assay: Binding affinity to POPC liposome membrane assessed as cross-relaxation rate of E protons with (CH2)n segment at compound to POPC molar ratio of 1:10 by NOESY 1H NMR analysis
Lipid bilayer [22] = assay: Binding affinity to POPC liposome membrane assessed as cross-relaxation rate of F protons with segment gamma at compound to POPC molar ratio of 1:10 by NOESY 1H NMR analysis; parameters: scale not given: the % may be the effect or the level left

Structure (SMILES)	CHI [1]	Activity (Lipid bilayer [2])	logP at 4 h [3]	Activity (Lipid bilayer [4])	Activity (Lipid bilayer [5]) [ppm]	Activity (Lipid bilayer [6])	other results
O=c1ccc2c([C@@H](O)CNC3Cc4ccccc4C3)ccc(O)c2[nH]1	41.6	Active	1.55	Active	32 to 33.6	Active	
CCc1ccc(CC)c2c1CC(NC[C@H](O)c1ccc(O)c3[nH]c(=O)ccc13)C2	58.9		3.03		32 to 33.6		Activity (Lipid bilayer [7]): Active
COc1ccc(CC(C)NCC(O)c2ccc(O)c(NC=O)c2)cc1 (stereo not drawn)					32 to 33.6		Activity (Lipid bilayer [8]): Active; Activity (Lipid bilayer [9]): Active
CCc1cc2c(cc1CC)CC(NC[C@H](O)c1ccc(O)c3[nH]c(=O)ccc13)C2 [INDACATEROL]	62.5	Active	3.05	Active	32 to 33.6	Active	Activity (Lipid bilayer [10]): 20 to 40%; Activity (Lipid bilayer [11]): Active; Activity (Lipid bilayer [12]): Active; Activity (Lipid bilayer [13]): Active; Activity (Lipid bilayer [14]): Active
OCc1cc(C(O)CNCCCCCCOCCCCc2ccccc2)ccc1O (stereo not drawn) [SALMETEROL]	56.7	Active	3.08	< 0.0025 s⁻¹	32 to 33.6	Active	Activity (Lipid bilayer [15]): 58%; Activity (Lipid bilayer [16]): 69%; Activity (Lipid bilayer [17]): Active; Activity (Lipid bilayer [18]): 49%; Activity (Lipid bilayer [19]): 26%; Activity (Lipid bilayer [20]): Active; Activity (Lipid bilayer [21]): Active; Activity (Lipid bilayer [22]): 43%
